The target of experiment [1] is T1, Adrenergic receptor alpha-1 (Rattus norvegicus, UniProt P15823+P23944+P43140).
T1 sequence (P15823 whole entry): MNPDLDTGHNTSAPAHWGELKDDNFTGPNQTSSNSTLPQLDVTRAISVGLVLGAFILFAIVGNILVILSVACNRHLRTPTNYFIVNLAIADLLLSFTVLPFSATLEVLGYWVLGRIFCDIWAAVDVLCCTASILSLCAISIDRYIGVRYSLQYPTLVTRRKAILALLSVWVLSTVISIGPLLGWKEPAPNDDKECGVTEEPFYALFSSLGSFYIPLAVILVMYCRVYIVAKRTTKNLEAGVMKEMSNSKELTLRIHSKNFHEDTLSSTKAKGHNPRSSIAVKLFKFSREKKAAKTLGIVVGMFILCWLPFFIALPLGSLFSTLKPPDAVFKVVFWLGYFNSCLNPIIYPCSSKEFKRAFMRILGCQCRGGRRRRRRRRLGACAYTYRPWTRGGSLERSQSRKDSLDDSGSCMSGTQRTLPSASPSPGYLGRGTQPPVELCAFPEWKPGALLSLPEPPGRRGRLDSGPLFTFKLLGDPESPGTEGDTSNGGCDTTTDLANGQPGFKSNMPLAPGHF
T1 sequence (P23944 whole entry): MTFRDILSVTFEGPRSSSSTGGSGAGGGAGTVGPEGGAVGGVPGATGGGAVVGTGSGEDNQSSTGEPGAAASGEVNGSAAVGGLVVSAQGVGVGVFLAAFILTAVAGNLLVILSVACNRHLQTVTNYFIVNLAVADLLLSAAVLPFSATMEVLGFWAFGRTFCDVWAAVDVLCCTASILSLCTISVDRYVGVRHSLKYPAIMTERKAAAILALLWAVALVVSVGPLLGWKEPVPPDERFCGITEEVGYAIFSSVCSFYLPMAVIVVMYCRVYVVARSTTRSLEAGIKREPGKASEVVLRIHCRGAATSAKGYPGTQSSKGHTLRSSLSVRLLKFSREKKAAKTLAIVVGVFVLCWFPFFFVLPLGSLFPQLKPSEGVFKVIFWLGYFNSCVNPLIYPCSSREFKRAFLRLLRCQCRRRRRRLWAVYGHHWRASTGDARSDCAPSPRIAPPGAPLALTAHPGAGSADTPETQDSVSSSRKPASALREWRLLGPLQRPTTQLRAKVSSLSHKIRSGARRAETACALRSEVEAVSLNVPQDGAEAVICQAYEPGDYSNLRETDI
T1 sequence (P43140 whole entry): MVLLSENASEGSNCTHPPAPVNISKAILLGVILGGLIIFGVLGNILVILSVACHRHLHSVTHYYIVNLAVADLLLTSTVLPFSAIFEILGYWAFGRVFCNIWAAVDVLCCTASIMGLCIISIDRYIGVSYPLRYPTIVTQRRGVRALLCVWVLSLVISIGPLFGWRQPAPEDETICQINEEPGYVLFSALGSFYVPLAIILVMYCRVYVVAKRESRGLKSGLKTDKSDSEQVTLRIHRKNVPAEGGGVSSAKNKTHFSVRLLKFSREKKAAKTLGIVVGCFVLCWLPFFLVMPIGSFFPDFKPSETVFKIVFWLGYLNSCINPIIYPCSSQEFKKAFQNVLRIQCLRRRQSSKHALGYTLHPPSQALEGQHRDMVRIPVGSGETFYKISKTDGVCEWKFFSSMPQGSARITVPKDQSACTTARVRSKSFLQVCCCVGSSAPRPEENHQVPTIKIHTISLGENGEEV
The experiment can be described thus: in vitro alpha-1 adrenergic receptor binding assay from rats, using RX 821002 as the displaceable ligand. In kind it is protein assay.

For experiment [2], the target named is T2, Alpha-2A adrenergic receptor (Rattus norvegicus, UniProt P22909).
T2 sequence (P22909 whole entry): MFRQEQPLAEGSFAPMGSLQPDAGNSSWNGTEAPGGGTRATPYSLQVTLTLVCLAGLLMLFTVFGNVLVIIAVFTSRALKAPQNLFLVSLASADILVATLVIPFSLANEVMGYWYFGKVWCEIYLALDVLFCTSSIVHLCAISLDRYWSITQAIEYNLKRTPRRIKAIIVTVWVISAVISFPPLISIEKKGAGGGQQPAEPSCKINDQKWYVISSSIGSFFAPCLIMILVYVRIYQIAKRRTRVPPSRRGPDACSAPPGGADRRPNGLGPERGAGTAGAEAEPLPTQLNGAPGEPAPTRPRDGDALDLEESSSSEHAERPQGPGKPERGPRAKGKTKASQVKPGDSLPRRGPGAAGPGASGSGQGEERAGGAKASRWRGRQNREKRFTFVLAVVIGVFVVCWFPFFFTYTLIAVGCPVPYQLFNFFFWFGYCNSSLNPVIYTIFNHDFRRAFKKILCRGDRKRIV
The experiment is described as follows: in vitro alpha-2A adrenergic receptor binding assay from rats, using RX 821002 as the displaceable ligand.

The target of experiment [3] is T3, Alpha-2B adrenergic receptor (Rattus norvegicus, UniProt P19328).
T3 sequence (P19328 whole entry): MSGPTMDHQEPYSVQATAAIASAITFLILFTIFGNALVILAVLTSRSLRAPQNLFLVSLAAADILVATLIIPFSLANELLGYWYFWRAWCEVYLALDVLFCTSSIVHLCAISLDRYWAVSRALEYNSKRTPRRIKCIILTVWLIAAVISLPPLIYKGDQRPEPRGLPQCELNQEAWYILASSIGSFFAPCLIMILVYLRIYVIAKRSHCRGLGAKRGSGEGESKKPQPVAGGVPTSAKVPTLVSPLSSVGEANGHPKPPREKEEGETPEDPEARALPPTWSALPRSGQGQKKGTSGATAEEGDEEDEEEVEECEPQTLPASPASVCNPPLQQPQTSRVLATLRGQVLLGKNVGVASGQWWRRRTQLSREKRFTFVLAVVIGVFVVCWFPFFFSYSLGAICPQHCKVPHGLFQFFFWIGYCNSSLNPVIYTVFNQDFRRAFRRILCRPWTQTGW
The experiment is described as follows: in vitro alpha-2B adrenergic receptor binding assay from rats, using RX 821002 as the displaceable ligand.

Experiment [4] relates to Mus musculus. The experiment is described as follows: (§1) potential antinociceptive activity initially at a screening dose of 30 mg/kg po in the mouse abdominal irritant test(MAIT) using acetylcholine bromide as irritant. The following applies: Abdomen. The class given is functional.
Experiment [5] relates to Mus musculus. The description is as §1. The following applies: Abdomen, read-out: Inhibition.
The species named for another experiment is Rattus norvegicus. The experiment is described as follows: ED50 value was measured using rat air-induced abdominal irritant test(RAIT). The class given is functional. The note with it: Abdomen.
For experiment [6], the target named is T4, Alpha-2C adrenergic receptor (Rattus norvegicus, UniProt P22086).
T4 sequence (P22086 whole entry): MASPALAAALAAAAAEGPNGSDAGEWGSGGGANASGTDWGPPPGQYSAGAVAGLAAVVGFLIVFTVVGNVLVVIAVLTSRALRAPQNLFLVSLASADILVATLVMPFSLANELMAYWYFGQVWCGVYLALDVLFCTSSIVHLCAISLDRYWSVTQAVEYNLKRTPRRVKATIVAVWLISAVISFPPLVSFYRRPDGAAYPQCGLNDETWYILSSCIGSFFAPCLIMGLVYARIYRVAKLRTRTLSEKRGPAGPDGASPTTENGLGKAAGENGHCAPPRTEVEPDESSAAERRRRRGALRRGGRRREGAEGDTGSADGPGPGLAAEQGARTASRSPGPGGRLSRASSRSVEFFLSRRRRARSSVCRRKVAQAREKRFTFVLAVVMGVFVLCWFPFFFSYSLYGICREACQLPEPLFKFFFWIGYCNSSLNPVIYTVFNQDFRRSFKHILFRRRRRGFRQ
The experiment is described as follows: in vitro alpha-2C adrenergic receptor binding assay from rats, using RX 821002 as the displaceable ligand.

The species named for experiment [7] is Mus musculus. The experiment is described as follows: Peroral ED50 value was measured using mouse tail flick test. The following applies: po. The class given is functional. Background: Hot-plate and tail-flick tests time the reaction to a heat stimulus.
Experiment [8] is filed under the species Mus musculus. The experiment can be described thus: Peroral ED50 value was measured using mouse 48 degree hot plate test. The class given is functional. The following applies: po.
The species named for experiment [9] is Mus musculus. The experiment is described as follows: Peroral ED50 value was measured using mouse abdominal irritant test(MAIT). The class given is functional. The note with it: Abdomen, po.
For experiment [10], the target named is T5, Alpha-2C adrenergic receptor (Rattus norvegicus) (UniProt P22086).
T5 sequence (whole entry): T4 sequence (P22086 whole entry)
The experiment is described as follows: % inhibition of alpha-2C adrenergic receptor binding at 1 uM.

Experiment [11] addresses T6, Alpha-2A adrenergic receptor (Rattus norvegicus) (UniProt P22909).
T6 sequence (whole entry): T2 sequence (P22909 whole entry)
The experiment can be described thus: % inhibition of alpha-2A adrenergic receptor binding at 1 uM.

This is an account of results in ChEMBL document CHEMBL1133002 (J Med Chem, 2000).

Broadly, the Ki is a measure of affinity in units of concentration, obtained from inhibition or displacement. `C1=C(c2c[nH]cn2)c2sccc2CC1`: the figures for the Ki in [1], in experiment [2] and in [3] were 399 nM, 224 nM and 940 nM, respectively. In addition, the inhibition in vivo at 30 mg/kg in the experiment with Mus musculus [4] worked out at 60%.

For orientation: ED50 means the dose that gives a 50% effect, or the effect in half of the subjects. As to `Cc1cccc([C@H](C)c2cnc[nH]2)c1C` [DEXMEDETOMIDINE], the inhibition in vivo at 30 mg/kg in the experiment on Mus musculus [5] is 0.09%. The Ki in [2] is 5 nM. In the experiment filed under Rattus norvegicus, this compound registered a 50% effective dose (ED50) of 0.12 mg/kg.

In the case of `Cc1sc(C)c2c1CCCC2c1c[nH]cn1` (configuration not stated), the Ki in experiment [1] is 48 nM; in experiment [6], 205 nM; in experiment [2] it was 68 nM; in experiment [3], 141 nM. Besides, the inhibition in vivo at 30 mg/kg with Mus musculus [4] was 93%. This compound also gave an ED50 in the experiment filed under Rattus norvegicus of 7.9 mg/kg.

On to `C1=C(c2c[nH]cn2)c2ccsc2CC1`, for which the ED50 was 100 mg/kg in the experiment filed under Mus musculus [7], 25.9 mg/kg in the experiment listed under Mus musculus [8], 11.6 mg/kg in the experiment filed under Mus musculus [9] and 15.1 mg/kg in the experiment listed under Rattus norvegicus. Also, the Ki amounted to 443 nM in [1], 254 nM in [2] and 621 nM in experiment [3]. Further, the inhibition in vivo at 30 mg/kg with Mus musculus [4] stood at 100%.

Regarding `c1nc(C2CCCc3sccc32)c[nH]1` (configuration not stated), the Ki came out at 110 nM in experiment [1], 172 nM in experiment [6], 27 nM in experiment [2] and 99 nM in experiment [3]. The compound also displayed an inhibition in vivo at 30 mg/kg in the experiment on Mus musculus [4] of 100%. Besides, the 50% effective dose (ED50) in the experiment filed under Rattus norvegicus was 0.9 mg/kg.

For the compound `c1cc(-c2c[nH]cn2)c2ccsc2c1`, the inhibition constant Ki in experiment [1] was 343 nM; in experiment [2], 277 nM; in [3], 663 nM. In the experiment on Mus musculus [4], this compound returned an inhibition in vivo at 30 mg/kg of 60%.

For `Clc1cccc(Cl)c1NC1=NCCN1` [CLONIDINE], the inhibition in vivo at 30 mg/kg with Mus musculus [4] amounted to 0.05%. The compound also registered an ED50 in the experiment listed under Rattus norvegicus of 0.1 mg/kg.

As to `Cc1sc(C)c2c1CCC=C2c1c[nH]cn1`, the Ki came out at 110 nM in [1], 26 nM in [6], 25 nM in experiment [2] and 100 nM in experiment [3]. Moreover, the inhibition in vivo at 30 mg/kg with Mus musculus [4] turned out to be 40%.

In general, inhibition refers to the percentage by which the read-out fell short of the control. For the compound `c1nc(C2CCCc3ccsc32)c[nH]1` (configuration not stated), the inhibition in experiment [10] worked out at 54%; in [11], 87%. The Ki in experiment [1] stood at 91 nM. Besides, the inhibition in vivo at 30 mg/kg in the experiment on Mus musculus [4] came out at 73%.
